Source: US8071507B2, “Plant growth regulating and fungicidal compositions” (Syngenta Crop Protection, Inc., priority 2005, dated 2011)

Columns and labels:
Format in all cases: in vivo
Wheat = assay: Plant growth regulation (PGR), pre-emergence, wheat; conditions: 14 days
Method: (§1) The compounds are sprayed with a vertical boom sprayer at the mentioned rates (ref. result-tables) pre-plant on the bare soil, then they are incorporated into the soil and the plants are seeded.

Rye = assay: Plant growth regulation (PGR), pre-emergence, rye; conditions: 14 days
Method: as §1

Summer rape “Hybridol” = assay: Plant growth regulation (PGR), post-emergence, summer rape; conditions: 14 days after application
Method: (§2) The plants are seeded and grown in a greenhouse until Growth Stage 12 (2 leafs unfolded). Then the compounds/mixture of the compounds are sprayed with a vertical boom sprayer top over the leafs.

Oat = assay: Plant growth regulation (PGR), pre-emergence, oat; conditions: 14 days
Method: as §1

Triticale = assay: Plant growth regulation (PGR), pre-emergence, triticale; conditions: 14 days
Method: as §1

Soybean = assay: Plant growth regulation (PGR), pre-emergence, soybean; conditions: 14 days
Method: as §1

[1] = system: Winter rape “Colza d'hiver Aviso”; assay: Plant growth regulation (PGR), post-emergence, winter rape; conditions: 14 days after application
Method: as §2

Oilseed Rape = assay: Plant growth regulation (PGR), pre-emergence, oilseed rape; conditions: 14 days
Method: as §1

Barley = assay: Plant growth regulation (PGR), pre-emergence, barley; conditions: 14 days
Method: as §1

## CC(C)(C)[C@@H](O)[C@@H](Cc1ccc(Cl)cc1)n1cncn1 (racemic) [Paclobutrazole, (2RS,3RS)-1-(4-chlorophenyl)-4,4-dimethyl-2-(1H-1,2,4-triazol-1-yl)-pentan-3-ol]
Wheat; Paclobutrazole 12.5 mg/L
  Observed PGR in % (% Cobs): 20%
Wheat; Paclobutrazole 25 mg/L
  Observed PGR in % (% Cobs): 25%
Wheat; Paclobutrazole 50 mg/L
  Observed PGR in % (% Cobs): 40%
Rye; Paclobutrazole 25 mg/L
  Observed PGR in % (% Cobs): 25%
Rye; Paclobutrazole 50 mg/L
  Observed PGR in % (% Cobs): 40%
Summer rape “Hybridol”; Paclobutrazole 31.3 g a.i./ha
  Observed PGR in % (% Cobs): 17%
Summer rape “Hybridol”; Paclobutrazole 62.5 g a.i./ha
  Observed PGR in % (% Cobs): 23%
Oat; Paclobutrazole 25 mg/L
  Observed PGR in % (% Cobs): 30%
Oat; Paclobutrazole 50 mg/L
  Observed PGR in % (% Cobs): 40%
Triticale; Paclobutrazole 25 mg/L
  Observed PGR in % (% Cobs): 10%
Triticale; Paclobutrazole 50 mg/L
  Observed PGR in % (% Cobs): 30%
Soybean; Paclobutrazole 25 mg/L
  Observed PGR in % (% Cobs): 30%
Soybean; Paclobutrazole 50 mg/L
  Observed PGR in % (% Cobs): 50%
[1]; Paclobutrazole 31.3 g a.i./ha
  Observed PGR in % (% Cobs): 30%
[1]; Paclobutrazole 62.5 g a.i./ha
  Observed PGR in % (% Cobs): 33%
Oilseed Rape; Paclobutrazole 12.5 mg/L
  Observed PGR in % (% Cobs): 40%
Oilseed Rape; Paclobutrazole 25 mg/L
  Observed PGR in % (% Cobs): 50%
Oilseed Rape; Paclobutrazole 50 mg/L
  Observed PGR in % (% Cobs): 55%
Barley; Paclobutrazole 12.5 mg/L
  Observed PGR in % (% Cobs): 0%
Barley; Paclobutrazole 25 mg/L
  Observed PGR in % (% Cobs): 10%
Barley; Paclobutrazole 50 mg/L
  Observed PGR in % (% Cobs): 30%

## CC1COC(Cn2cncn2)(c2ccc(Oc3ccc(Cl)cc3)cc2Cl)O1 (stereo not drawn) [Difenoconazole, 1-[2-[2-chloro-4-(4-chlorophenoxy)phenyl]-4-methyl-1,3-dioxolan-2-ylmethyl]-1H-1,2,4-triazole]
Wheat; Difenoconazole 25 mg/L
  Observed PGR in % (% Cobs): 0%
Wheat; Difenoconazole 50 mg/L
  Observed PGR in % (% Cobs): 0%
Wheat; Difenoconazole 100 mg/L
  Observed PGR in % (% Cobs): 0%
Rye; Difenoconazole 50 mg/L
  Observed PGR in % (% Cobs): 0%
Rye; Difenoconazole 100 mg/L
  Observed PGR in % (% Cobs): 0%
Summer rape “Hybridol”; Difenoconazole 62.5 g a.i./ha
  Observed PGR in % (% Cobs): 0%
Summer rape “Hybridol”; Difenoconazole 125 g a.i./ha
  Observed PGR in % (% Cobs): 0%
Oat; Difenoconazole 50 mg/L
  Observed PGR in % (% Cobs): 0%
Oat; Difenoconazole 100 mg/L
  Observed PGR in % (% Cobs): 0%
Triticale; Difenoconazole 50 mg/L
  Observed PGR in % (% Cobs): 0%
Triticale; Difenoconazole 100 mg/L
  Observed PGR in % (% Cobs): 0%
Soybean; Difenoconazole 50 mg/L
  Observed PGR in % (% Cobs): 0%
Soybean; Difenoconazole 100 mg/L
  Observed PGR in % (% Cobs): 0%
[1]; Difenoconazole 62.5 g a.i./ha
  Observed PGR in % (% Cobs): 0%
[1]; Difenoconazole 125 g a.i./ha
  Observed PGR in % (% Cobs): 0%
Oilseed Rape; Difenoconazole 25 mg/L
  Observed PGR in % (% Cobs): 0%
Oilseed Rape; Difenoconazole 50 mg/L
  Observed PGR in % (% Cobs): 0%
Oilseed Rape; Difenoconazole 100 mg/L
  Observed PGR in % (% Cobs): 0%
Barley; Difenoconazole 25 mg/L
  Observed PGR in % (% Cobs): 0%
Barley; Difenoconazole 50 mg/L
  Observed PGR in % (% Cobs): 0%
Barley; Difenoconazole 100 mg/L
  Observed PGR in % (% Cobs): 0%
